What was measured:
Assay in all cases: relative viability (nuclei count vs DMSO), 5 days (fraction); higher = more cells survive
RO-3306 + Alpelisib = compound: C1=CC2=C(C=CC(=C2)C=C3C(=O)NC(=NCC4=CC=CS4)S3)N=C1 [RO-3306] + Cc1nc(NC(=O)N2CCC[C@H]2C(N)=O)sc1-c1ccnc(C(C)(C)C(F)(F)F)c1 [Alpelisib] (partner 2 µM)
In short: (§1)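 Values are medians from duplicate plates. Each reflects relative viability, defined as the nuclei count of treated wells over that of vehicle wells. Lung cancer cell lines in 1536-well plates were pin-tool dosed one day after seeding with one drug alone or with a fixed anchor-drug dose plus five library-drug doses (not always all listed) in √10 steps, then fixed, stained and imaged at 4× after 5 days.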

[1] = compound: O=S(=O)(c1ccccc1)N(CC(F)(F)F)c1ccc(C(O)(C(F)(F)F)C(F)(F)F)cc1 + COc1cc2c(Oc3ccc(NC(=O)C4(C(=O)Nc5ccc(F)cc5)CC4)cc3F)ccnc2cc1OCCCN1CCOCC1 [Foretinib] (partner 0.25 µM)
In short: as §1

[2] = compound: O=S(=O)(c1ccccc1)N(CC(F)(F)F)c1ccc(C(O)(C(F)(F)F)C(F)(F)F)cc1 + CC(=O)Nc1cccc(-n2c(=O)n(C3CC3)c(=O)c3c(Nc4ccc(I)cc4F)n(C)c(=O)c(C)c32)c1 [Trametinib] (partner 0.02 µM)
In short: as §1

RO-3306 + Decitabine = compound: C1=CC2=C(C=CC(=C2)C=C3C(=O)NC(=NCC4=CC=CS4)S3)N=C1 [RO-3306] + Nc1ncn([C@H]2C[C@H](O)[C@@H](CO)O2)c(=O)n1 [Decitabine] (partner 2 µM)
In short: as §1

Cell Line | relative viability (RO-3306 + Alpelisib; first compound 0.01 µM) | relative viability (RO-3306 + Alpelisib; first compound 0.03162 µM) | relative viability (RO-3306 + Alpelisib; first compound 0.1 µM) | relative viability (RO-3306 + Alpelisib; first compound 0.3162 µM) | relative viability (RO-3306 + Alpelisib; first compound 1 µM) | relative viability ([1]; first compound 0.8 µM) | relative viability ([1]; first compound 2.53 µM) | relative viability ([1]; first compound 8 µM) | relative viability ([2]; first compound 0.8 µM) | relative viability ([2]; first compound 2.53 µM) | relative viability ([2]; first compound 8 µM) | relative viability (RO-3306 + Decitabine; first compound 0.01 µM) | relative viability (RO-3306 + Decitabine; first compound 0.03162 µM) | relative viability (RO-3306 + Decitabine; first compound 0.1 µM) | relative viability (RO-3306 + Decitabine; first compound 0.3162 µM) | relative viability (RO-3306 + Decitabine; first compound 1 µM)
NCI-H1666 | 1.02 | 0.743 | 0.891 | 0.973 | 0.802 | 0.936 | 0.863 | 0.863 | 0.902 | 0.845 | 0.704 | 0.729 | 0.75 | 0.736 | 0.711 | 0.641
NCI-H2126 | 0.717 | 0.698 | 0.752 | 0.786 | 0.8 | 1.35 | 1.19 | 1.1 | 0.645 | 0.593 | 0.628 | 0.528 | 0.561 | 0.637 | 0.586 | 0.57
LXF-289 | 1.08 | 1.01 | 1.03 | 1.05 | 1.05 | 0.993 | 0.88 | 0.812 | 0.582 | 0.532 | 0.518 | 0.377 | 0.36 | 0.387 | 0.333 | 0.424
NCI-H358 | 0.868 | 0.711 | 0.759 | 0.809 | 0.556 | 0.592 | 0.557 | 0.45 | – | 0.118 | 0.118 | 0.204 | 0.208 | 0.216 | 0.206 | 0.182
NCI-H1734 | 0.687 | 0.595 | 0.697 | 0.726 | 0.719 | 1.07 | 0.868 | 0.822 | 0.711 | 0.65 | 0.664 | 0.621 | 0.471 | 0.471 | 0.566 | 0.502
NCI-H2087 | 1.12 | 1.2 | 1.08 | 0.91 | 1.08 | 1.15 | 0.909 | 0.971 | 0.26 | 0.173 | 0.2 | 0.296 | 0.276 | 0.253 | 0.251 | 0.25
NCI-H460 | 0.571 | – | 0.503 | 0.656 | 0.426 | 1.14 | 0.889 | 0.778 | 0.198 | 0.109 | 0.147 | 0.52 | 0.44 | 0.509 | 0.645 | 0.462
NCI-H1793 | 0.686 | 0.577 | 0.739 | 0.59 | 0.565 | 0.484 | 0.321 | 0.566 | 0.33 | 0.295 | 0.29 | 0.415 | – | 0.403 | 0.49 | 0.493
A-427 | 1.13 | 0.575 | 1 | 1.06 | 1.02 | 1.1 | 0.967 | 1.09 | 0.722 | 0.645 | 0.682 | 0.615 | 0.545 | 0.543 | 0.572 | 0.568

Reference: the supplement of paper PMC10307832
